Assay results taken from PMC10532587, “An Investigation of Structure–Activity Relationships and Cell Death Mechanisms of the Marine Alkaloids Discorhabdins in Merkel Cell Carcinoma Cells” (Marine Drugs, 2023).
Where two headings read alike, the source gives them in different places.

Assays:
MCC26 = experiment: Cell survival by CellTiterGlo, VN-MCC line MCC26; assay type: cell-based; conditions: for IC50: CellTiterGlo, normalized to DMSO; for AUC (arbitrary units) MCC26: area under the dose-response curve
MCC13 = experiment: Cell survival by CellTiterGlo, VN-MCC line MCC13; assay type: cell-based; conditions: for IC50: CellTiterGlo, normalized to DMSO; for AUC (arbitrary units) MCC13: area under the dose-response curve
MKL-1 = experiment: Cell survival by CellTiterGlo, VP-MCC line MKL-1; assay type: cell-based; conditions: VP-MCC; for IC50: MKL-1, CellTiterGlo, normalized to DMSO, read-out: IC50 (nM) MKL-1; for AUC (arbitrary units) MKL-1: area under the dose-response curve
Waga = experiment: Cell survival by CellTiterGlo, VP-MCC line Waga; assay type: cell-based; conditions: for IC50: CellTiterGlo, normalized to DMSO; for AUC (arbitrary units) WaGa: area under the dose-response curve
UISO = experiment: Cell survival by CellTiterGlo, VN-MCC line UISO; assay type: cell-based; conditions: for IC50: CellTiterGlo, normalized to DMSO; for AUC (arbitrary units) UISO: area under the dose-response curve
[1] = system: VP-MCC cell lines (MKL-1, MKL-2, and Waga); experiment: Selectivity VP-MCC versus control cells (average AUC); assay type: cell-based
Text: (§1) In order to compare responses among all of the discorhabdins and cell lines (98 combinations), dose–response curves were generated using identical discorhabdin dilution series. GraphPad Prism 8 (San Diego, CA, USA) software was utilized to graph dose–response data and to calculate IC50 values and area under the dose–response curves (AUC) along with 95% confidence interval estimates using four-parameter logistic nonlinear regression analysis. For further analysis and comparisons, AUC for each cell line/discorhabdin pair was visualized in a heatmap generated in R version 1.3.1073 (R Core Team (2013). R: A language and environment for statistical computing. R Foundation for Statistical Computing, Vienna, Austria, http://www.R-project.org/ (accessed on 12 January 2023).
(§2) Figure S41: Discorhabdi nselectivity
(§3) Discorhabdin selectivity for VP -MCC and VN- MCCcells was estimated by comparison of activity (average AUC) for each dis corhabdin against VP -MCC (panel A) or VN- MCC (panel B) cell lines compared to control cells . Discorhabdins were sort ed by selectivity from most to least selective. - fold dif fer ence = (av e VN -MCC or VP -MCC AUC/ control AUC). Error bars […]
(§4) (1 picture or pasted object on this page, not shown here)

MCC cell lines = experiment: Cell survival by CellTiterGlo, MCC cell lines together; assay type: cell-based; conditions: average over MCC cell lines
Method: (§5) Three methods were employed for assessment of MCC and control cell survival/viability after discorhabdin treatment, two metabolic assays and a cell permeability assay. For all three methods, cells were plated in 384-well plates at 2500 cells/well and treated with various concentrations of discorhabdins for various time periods. CellTiterGlo^TM (Promega, Madison, WI, USA) measures cellular ATP content and was used to estimate potency of discorhabdins in cell viability assays as previously described. Continuous monitoring of metabolic activity was accomplished using a cellular reducing potential luminescence assay, the RealTime-Glo^TM MT Cell Viability Assay (Promega, Madison, WI, USA) according to manufacturer’s instructions. Loss of cell plasma membrane integrity was assessed using a cell-impermeant molecule that becomes fluorescent upon binding DNA [82] in parallel with apoptosis detection per manufacturer’s instructions (RealTimeGlo^TM Annexin V Apoptosis and Necrosis Assay-Promega). Two additional assays of apoptotic cell death were also used. Caspase activation in response to treatment of MCC cells by discorhabdins or bortezomib (as a positive control) was measured using the CaspaseGlo® 3/7 Assay (Promega, Madison, WI, USA) according to the manufacturer’s instructions at multiple time points. Inhibition of apoptotic cell death was investigated using pre-treatment of cells with for 1 h with the pan-caspase inhibitor Z-VAD-FMK (Enzo Life Sciences, Farmingdale, NY, USA) followed by treatment with discorhabdins or bortezomib and estimation of cell viability as outlined above.
as §1

[2] = system: control (HaCaT) and Merkel cell carcinoma cell lines; experiment: Cell survival by CellTiterGlo, all seven cell lines; assay type: cell-based; conditions: MCC and control cell lines
Method: as §5, §1
Figure S39: Activity of discorhabdins against M CC cell lines.
The indicated discorh abd ins were ass essed for th eir ability to affect surviv al of control (H aCaT) and Merkel cell carcino ma cell lines (VN-MCC: MCC13, MCC26, UISO and VP -MCC: MKL-1, MKL-2, Wag a). Cells were plat ed at 2500 cells/well and compounds the next day. Cell survival was estimated by CellTiterGlo (normalized to untreated (DMSO) cells on the same plate). Structures w ere o btained from the supplier and/or the PubChem database or as described in the text. Number in bold in ( ) refers to structures in Figure 1 in the text. Curves were plotted and IC50 values and 95% confidence interval calculated by GraphPad software. […]

HaCaT = experiment: Cell survival by CellTiterGlo, control cells; assay type: cell-based, human; conditions: for IC50: Homo sapiens, HaCaT; for AUC (arbitrary units) HaCaT: area under the dose-response curve, control cells
[3] = system: VN-MCC cell lines (MCC13, MCC26, and UISO); experiment: Selectivity VN-MCC versus control cells (average AUC); assay type: cell-based
Text: as §1, §2, §3, §4

MKL-2 = experiment: Cell survival by CellTiterGlo, VP-MCC line MKL-2; assay type: cell-based; conditions: for IC50: CellTiterGlo, normalized to DMSO; for AUC (arbitrary units) MKL-2: area under the dose-response curve
[4] = control skin cell line, CellTiterGlo, normalized to DMSO, read-out: IC50 (nM) HaCaT
[5] = read-out: IC50 for control cells

CSC1=CC(=O)C(Br)=C[C@]12C=CNC1=C2C2=NCCc3c[nH]c(c32)C1=O [Compound 8, (+)-(6S) N-13-demethyldiscorhabdin U]
IC50 (MCC26): 749 nM
AUC (arbitrary units) MCC26 (MCC26): 80.16 arbitrary units
IC50 (MCC13): 299 nM
AUC (arbitrary units) MCC13 (MCC13): 48.65 arbitrary units
IC50 (MKL-1): 22.7 nM
AUC (arbitrary units) MKL-1 (MKL-1): 5.221 arbitrary units
IC50 (Waga): 86.9 nM
AUC (arbitrary units) WaGa (Waga): 14.83 arbitrary units
IC50 (UISO): 251 nM
AUC (arbitrary units) UISO (UISO): 32.84 arbitrary units
increased activity against VP-MCC compared to the control [1]: > 10 fold
averaged potency (IC50) across all MCC cell lines tested (MCC cell lines): sub-micromolar
activity on cell viability, in words [2]: one of the most active compounds tested
IC50 (HaCaT; [4]): 1010 nM
IC50 (HaCaT; [5]): ≤ 1000 nM
AUC (arbitrary units) HaCaT (HaCaT): 123.3 arbitrary units

Cc1[nH]c2c3c1CCN=C3C1=C(NCCC13C=C(Br)C(=O)C(Br)=C3)C2=O [Compound 18, 14-methyldiscorhabdin C]
IC50 (MCC26): 3060 nM
AUC (arbitrary units) MCC26 (MCC26): 329.4 arbitrary units
IC50 (MCC13): 1450 nM
AUC (arbitrary units) MCC13 (MCC13): 159.8 arbitrary units
increased activity against VN-MCC compared to control cells (fold difference) [3]: > 3 fold
IC50 (MKL-1): 175 nM
AUC (arbitrary units) MKL-1 (MKL-1): 20.95 arbitrary units
IC50 (Waga): 430 nM
AUC (arbitrary units) WaGa (Waga): 51.75 arbitrary units
IC50 (UISO): 670 nM
AUC (arbitrary units) UISO (UISO): 74.19 arbitrary units
increased activity against VP-MCC compared to the control [1]: > 10 fold
IC50 (HaCaT; [4]): 5380 nM
AUC (arbitrary units) HaCaT (HaCaT): 584.7 arbitrary units

O=C1CC2SC3CC2(C=C1Br)C1=C(N3)C(=O)c2[nH]cc3c2C1=NCC3 (single isomer, unassigned; (+)) [Compound 1]
IC50 (MCC26): 197 nM
AUC (arbitrary units) MCC26 (MCC26): 88.19 arbitrary units
IC50 (MCC13): 64 nM
AUC (arbitrary units) MCC13 (MCC13): 8.589 arbitrary units
IC50 (MKL-1): 29 nM
AUC (arbitrary units) MKL-1 (MKL-1): 4.944 arbitrary units
IC50 (Waga): 57 nM
AUC (arbitrary units) WaGa (Waga): 6.873 arbitrary units
IC50 (UISO): 54 nM
AUC (arbitrary units) UISO (UISO): 7.172 arbitrary units
averaged potency (IC50) across all MCC cell lines tested (MCC cell lines): sub-micromolar
activity on cell viability, in words [2]: most generally toxic compound tested
IC50 (HaCaT; [4]): 273 nM
IC50 (HaCaT; [5]): ≤ 1000 nM
AUC (arbitrary units) HaCaT (HaCaT): 29.87 arbitrary units
IC50 (MKL-2): 48 nM
AUC (arbitrary units) MKL-2 (MKL-2): 6.99 arbitrary units

O=C1C=C[C@]2(C=C1Br)CCNC1=C2C2=NCCc3c[nH]c(c32)C1=O [Compound 22, (+)-(6S)-discorhabdin E]
IC50 (MCC26): 2000 nM
AUC (arbitrary units) MCC26 (MCC26): 226.2 arbitrary units
IC50 (MCC13): 888 nM
AUC (arbitrary units) MCC13 (MCC13): 106.9 arbitrary units
IC50 (MKL-1): 125 nM
AUC (arbitrary units) MKL-1 (MKL-1): 14.16 arbitrary units
IC50 (Waga): 332 nM
AUC (arbitrary units) WaGa (Waga): 36.75 arbitrary units
IC50 (UISO): 459 nM
AUC (arbitrary units) UISO (UISO): 53.3 arbitrary units
increased activity against VP-MCC compared to the control [1]: > 10 fold
averaged potency (IC50) across all MCC cell lines tested (MCC cell lines): sub-micromolar
IC50 (HaCaT; [4]): 3010 nM
AUC (arbitrary units) HaCaT (HaCaT): 328.3 arbitrary units

O=C1C=C(SSC2=CC(=O)C(Br)=C[C@]23C=CNC2=C3C3=NCCc4c[nH]c(c43)C2=O)[C@@]2(C=CNC3=C2C2=NCCc4c[nH]c(c42)C3=O)C=C1Br [Compound 10, (−)-(6S,6′S) discorhabdin W]
IC50 (MCC26): 2560 nM
AUC (arbitrary units) MCC26 (MCC26): 290.1 arbitrary units
IC50 (MCC13): 1380 nM
AUC (arbitrary units) MCC13 (MCC13): 184.2 arbitrary units
IC50 (MKL-1): 136 nM
AUC (arbitrary units) MKL-1 (MKL-1): 18.4 arbitrary units
IC50 (Waga): 307 nM
AUC (arbitrary units) WaGa (Waga): 40.16 arbitrary units
IC50 (UISO): 1240 nM
AUC (arbitrary units) UISO (UISO): 162.4 arbitrary units
increased activity against VP-MCC compared to the control [1]: > 10 fold
IC50 (HaCaT; [4]): 4860 nM
AUC (arbitrary units) HaCaT (HaCaT): 538.3 arbitrary units
IC50 (MKL-2): 387 nM
AUC (arbitrary units) MKL-2 (MKL-2): 55.04 arbitrary units

O=C1C(Br)=CC2(C=C1Br)CCNC1=C2C2=NCCc3c(Br)[nH]c(c32)C1=O [Compound 19, 14-bromodiscorhabdin C]
IC50 (MCC26): 893 nM
AUC (arbitrary units) MCC26 (MCC26): 120.6 arbitrary units
IC50 (MCC13): 511 nM
AUC (arbitrary units) MCC13 (MCC13): 90.22 arbitrary units
increased activity against VN-MCC compared to control cells (fold difference) [3]: > 3 fold
IC50 (MKL-1): 37.8 nM
AUC (arbitrary units) MKL-1 (MKL-1): 7.189 arbitrary units
IC50 (Waga): 249 nM
AUC (arbitrary units) WaGa (Waga): 50.51 arbitrary units
IC50 (UISO): 412 nM
AUC (arbitrary units) UISO (UISO): 88.25 arbitrary units
increased activity against VP-MCC compared to the control [1]: > 10 fold
averaged potency (IC50) across all MCC cell lines tested (MCC cell lines): sub-micromolar
IC50 (HaCaT; [4]): 3740 nM
AUC (arbitrary units) HaCaT (HaCaT): 441.7 arbitrary units
